Laboratory results as given in US7410966B2, “Use of and some novel imidazopyridines” (AstraZeneca AB, priority 2002, dated 2008).
Structures can show the parent of a compound that is named as a salt.

Target: T1, recombinant human Itk kinase domain fused with GST (Homo sapiens, UniProt Q08881)
T1 construct: recombinant human Itk kinase domain fused with GST (Glutathione S-Transferase); GST (Glutathione S-Transferase); made in house; host or cells: High Five insect cells
T1 sequence (Q08881 363-615 limits assumed): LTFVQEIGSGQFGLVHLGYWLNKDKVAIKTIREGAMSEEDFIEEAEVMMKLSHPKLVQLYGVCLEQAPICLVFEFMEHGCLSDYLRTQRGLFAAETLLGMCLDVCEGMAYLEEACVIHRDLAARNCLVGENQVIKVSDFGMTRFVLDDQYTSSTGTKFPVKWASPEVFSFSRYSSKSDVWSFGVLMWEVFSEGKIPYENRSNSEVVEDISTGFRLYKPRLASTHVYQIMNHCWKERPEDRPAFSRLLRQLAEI
Assay: Itk LANCE TRF Assay
Assay type: biochemical
Conditions: 2 μM biotinylated peptide substrate, 50 μM ATP, 50 minutes RT, read-out: Inhibition of Kinase Itk (IC50 μM)
Protocol: The Itk kinase assay utilized recombinant human Itk kinase domain fused with GST (Glutathione S-Transferase). The protein was expressed in High five insect cells, purified in one step on an affinity chromatography glutathione column and stored in 50 mM Tris/HCl (pH 7.6), 150 mM NaCl, 5% (w/v) mannitol, 1 mM DTT, 30% glycerol at −70° C. The kinase substrate used in the assay was a biotinylated peptide derived from the Src-optimal substrate (Nair et al, J. Med. Chem., 38: 4276, 1995; biotin-AEEEIYGEFEAKKKK).
The assay additions were as follows: Test compounds (or controls; 1 μL in 100% DMSO) were added to black 96-well flat-bottomed plates (Greiner 655076) followed by 20 μL Itk in assay buffer and the reaction was started by adding 20 μL ATP and peptide substrate in assay buffer. The assay buffer constitution during, phosphorylation was: 50 mM HEPES (pH 6.8), 10 mM MgCl2, 0.015% Brij 35, 1 mM DTT, 10% glycerol, 160 ng/well Itk, 2 μM peptide substrate and 50 μM ATP. The assay was stopped after 50 minutes (RT) by adding 150 μL ice-cold Stop solution (50 mM Tris/HCl, pH 7.5, 10 mM EDTA, 0.9% NaCl and 0.1% BSA) together with LANCE reagents (2 nM PT66-Eu^3+, Wallac AD0069 and 5 μg/mL Streptavidin-APC, Wallac AD0059. Both concentrations were final in stopped assay solution). The plates were measured on a Wallac 1420 Victor 2 instrument with TRF settings after 1 h incubation, and the ratio (665 signal/615 signal)*10000 was used to calculate the inhibition values. IC50 values were determined using XLfit.

Row | Structure (SMILES) | IC50
1 | COc1cc(-c2nc3cc(Br)cnc3[nH]2)ccc1OCc1ccccc1 [Example 29, 2-[4-(Benzyloxy)-3-methoxyphenyl]-6-bromo-3H-imidazo[4,5-b]pyridine trifluoroacetate] | 0.31 µM
2 | Brc1cnc2[nH]c(-c3ccc(OCCNc4nccs4)cc3)nc2c1 [Example 104, N-{2-[4-(6-Bromo-3H-imidazo[4,5-b]pyridin-2-yl)phenoxy]ethyl}-1,3-thiazol-2-amine bis(trifluoroacetate)] | 0.24 µM
3 | OC1CCN(CC(O)COc2ccc(-c3nc4cc(Br)cnc4[nH]3)cc2)C1 (centres unmarked) [Example 124, 1-{3-[4-(6-Bromo-3H-imidazo[4,5-b]pyridin-2-yl)phenoxy]-2-hydroxypropyl}pyrrolidin-3-ol] | 0.43 µM
4 | OCCN1CCN(CC(O)COc2ccc(-c3nc4cc(Br)cnc4[nH]3)cc2)CC1 (centres unmarked) [Example 162, 1-[4-(6-Bromo-3H-imidazo[4,5-b]pyridin-2-yl)phenoxy]-3-[4-(2-hydroxyethyl)piperazin-1-yl]propan-2-ol bis(trifluoroacetate)] | 0.53 µM
5 | COc1ccc(CNc2ccc(-c3nc4cc(Br)cnc4[nH]3)cc2)cc1 [Example 180, N-[4-(6-Bromo-3H-imidazo[4,5-b]pyridin-2-yl)phenyl]-N-(4-methoxybenzyl)amine bis(trifluoroacetate)] | 0.29 µM
6 | Clc1cnc2[nH]c(-c3ccc(OCCN4CCOCC4)cc3)nc2c1N1CCCC1 [Example 236, 6-Chloro-2-[4-(2-morpholin-4-ylethoxy)phenyl]-7-pyrrolidin-1-yl-3H-imidazo[4,5-b]pyridine] | 0.41 µM
7 | Cc1ccc(-c2c(Cl)cnc3[nH]c(-c4ccc(OCCN5CCOCC5)cc4)nc23)cc1 [Example 238, 6-Chloro-7-(4-methylphenyl)-2-[4-(2-morpholin-4-ylethoxy)phenyl]-3H-imidazo[4,5-b]pyridine] | 0.35 µM
8 | COc1ccc(S(=O)(=O)Nc2ccc(-c3nc4ncc(Cl)c(Cl)c4[nH]3)cc2)cc1 [Example 267, N-[4-(6,7-Dichloro-1H-imidazo[4,5-b]pyridin-2-yl)phenyl]-4-methoxybenzenesulfonamide] | 0.26 µM
